How the values were obtained:
[1] = system: H9C2 cardiomyocytes; assay: Quantification of phenylephrine-induced EGFP synthesis as surrogate for cell size (hypertrophy); format: cell-based, rat; details: for SUL EGFP Inhibition (%): 30 μM SUL compound, calculated as 100%-Emax; for Expression of EGFP induced by phenylephrine (FIG. 3): preincubation with 30 μM compound
Procedure: (§1) Rat H9C2 cardiomyoblasts (ATCC CRL-1446) were maintained in DMEM medium containing 10% fetal bovine serum and 1% Penicillin-Streptomycin solution (Sigma-Aldrich) and passaged when the cultures reach a confluency of 70%. Prior to experiments, H9C2 myoblasts were differentiated to cardiomyocytes by serum reduction (to 1%) and stimulation with 20 nM retinoic acid for 5 days. Differentiated H9C2 cardiomyocytes were seeded at 0.6·10^5 cells/cm^2 for all experiments.
H9C2 cardiomyocytes (0.6·10^5 cells/cm2) were infected with CMV-copGPF (MOI 10) in culture medium without serum for 24 h. H9C2 cardiomyocytes were pre-incubated with 30 μM SUL compounds under standard culture conditions for 30 min and then stimulated with phenylephrine (dose range 2·10^−5 to 1·10^−11 M) for an additional period of 24 h. Thereafter H9C2 cardiomyocytes were lysed in 100 μl soft lysis buffer (25 mM Tris, 2 mM Dithiothreitol, 2 mM EDTA, 1% Triton X-100, pH 7.4). per well and fluorescence intensity of the obtained supernatant was recorded in a CLARIOStar Plus plate reader (BMG Labtech) equipped with a FITC filter set (excitation 488 nm with 10 nm bandwidth; emission 515 with a 20 nm bandwidth).
All experiments were performed in triplicate per condition and averaged. Data obtained from two individual experiments were used for evaluation in GraphPad Prism 8.0 (GraphPad Software Inc, Ca). Average H9C2 cardiomyocyte cell size was associated to average EGFP levels using linear regression. Phenylephrine-induced EGFP synthesis was normalized, using baseline levels as 0% and maximum EGFP recordings as 100%. All datasets were normalized to vehicle controls. 4 parameter non-linear regression was used to determine the efficacy of potency of phenylephrine to induce GFP synthesis. The efficacy of SUL compounds to inhibit phenylephrine-induced EGFP synthesis was calculated as 100%-Emax, wherein Emax is the maximal effect evoked by phenylephrine.

[2] = system: H9C2 cardiomyocytes; assay: Determination of cell size (cell surface area) after phenylephrine; format: cell-based, rat; details: 24 h
Procedure: as §1
H9C2 cardiomyocytes were serum starved for 24 h and thereafter exposed to different concentrations of phenylephrine (dose range 2·10^−5 to 1·10^−11 M) for an additional 24 h. Cells were washed in ice-cold PBS and fixed by 2% paraformaldehyde in PBS at room temperature for 10 min. Fixed cells were incubated with 5 μM Rhodamine-conjugated Phalloidin (ThermoFisher Scientific) and washed extensively with PBS. Fluorescent pictures were taken randomly with an Zeiss AxioObserver Z1 microscope and cell size was analyzed with CellProfiler software [McQuin, 2018].

[3] = system: H9C2 cardiomyocytes; assay: Protein synthesis by H9C2 cardiomyocytes after phenylephrine; format: cell-based; details: Rattus norvegicus, FIG. 2D, read-out: EC50 for increase of protein synthesis

Row | Structure (SMILES) | SUL EGFP Inhibition (%) [1] [%] | Expression of EGFP induced by phenylephrine (FIG. 3) [1] | also measured
1 | C[C@H]1CCC/C=C/[C@@H]2C[C@H](O)C[C@H]2[C@H](O)/C=C/C(=O)O1 [Brefeldin A, reference compound] |  |  | Phenylephrine-induced increase in EGFP fluorescence (FIG. 2F) ([1]; addition of protein synthesis inhibitor): inhibits the phenylephrine-induced increase in EGFP fluorescence
2 | CNC[C@H](O)c1cccc(O)c1 [Phenylephrine] |  |  | EC50 ([1]; Rattus norvegicus, H9C2 cardiomyocytes transformed with CMV-EGFP lentiviral particles, FIG. 2B, read-out: EC50 for increase of EGFP fluorescence): 5.2 nM; H9C2 cardiomyocyte cell surface area ([2]; 2·10^−5 M phenylephrine, vehicle-treated control 791±263 μm^2): 3278±296 μm^2; EC50 ([2]; Rattus norvegicus, H9c2, phenylephrine 1·10^−11 to 2·10^−5 M, FIG. 2A, read-out: EC50 for increase of H9C2 cardiomyocyte cell surface area): 0.74 nM; EC50 [3]: 0.55 nM
3 | Cc1c(C)c2c(c(C)c1O)CCC(C)(C(=O)O)O2 (stereo not shown) [SUL-11, 6-hydroxy-2,5,7,8-tetramethylchroman-2-carboxylic acid (Trolox), reference compound] | 54.05 | reduced the expression of EGFP | 
4 | Cc1c(C)c2c(c(C)c1O)CC[C@@](C)(C(=O)N[C@@H]1CCCNC1)O2 [SUL-13, (S)-6-hydroxy-2,5,7,8-tetramethyl-N-((R)-piperidin-3-yl)chromane-2-carboxamide] | 68.85 | reduced the expression of EGFP | 
5 | COC(=O)CNC(=O)C1(C)CCc2c(C)c(O)c(C)c(C)c2O1 (stereo not shown) [SUL-99, methyl [(6-hydroxy-2,5,7,8-tetramethyl-3,4-dihydro-2H-1-benzopyran-2-carbonyl)amino]acetate, reference compound] | 55.11 | reduced the expression of EGFP | 
6 | Cc1c(C)c2c(c(C)c1O)CC[C@@](C)(C(=O)N1CCN(CCO)CC1)O2 [SUL-138, (S)-(6-hydroxy-2,5,7,8-tetramethylchroman-2-yl)(4-(2-hydroxyethyl)piperazin-1-yl)methanone] | 63.18 | reduced the expression of EGFP | 
7 | Cc1c(C)c(O)c(CC[C@@](C)(O)C(=O)N2CCN(CCO)CC2)c(C)c1O [SUL-138M2, 4-(2,5-dihydroxy-3,4,6-trimethylphenyl)-2-hydroxy-1-(4-(2-hydroxyethyl)piperazin-1-yl)-2-methylbutan-1-one] | 43.92 |  | 
8 | Cc1c(C)c2c(c(C)c1O)CC[C@@](C)(C(=O)N1CCNCC1)O2 [SUL-151, (S)-(6-hydroxy-2,5,7,8-tetramethylchroman-2-yl)(piperazin-1-yl)methanone] | 56.8 | reduced the expression of EGFP | 

— patent publication US20230330060A1, “COMPOUNDS FOR TREATMENT OF HEART FAILURE” (Sulfateq B.V., priority 2020, published 2023)
